We go through 85 compounds from PubChem BioAssay AID489027 (Sanford-Burnham Center for Chemical Genomics, 2010).

Broadly, the EC50 is the concentration needed to bring the measured effect to its halfway point.

The target of this test is UPR counterscreen luciferase reporter, luminescence. In words: luciferase reporter activation, UPR counterscreen line – cell-based, luminescence, counter-screen for adaptive UPR activator project, dose response (AID 489027). In general terms: In a reporter assay the amount or activity of a reporter protein is the signal.

The structures appear in SMILES notation. Active and inactive are the calls of the source. How the calls were made is not given here. A value given as a limit tells only on which side of the number the result lay.

Turning to `Cc1ccc2nc(/C(C#N)=C/c3ccc(O)c(O)c3)[nH]c2c1`, the EC50 was 13.7 µM.

For `CCCCN(CC)S(=O)(=O)c1ccc(C(=O)N(CCCN(C)C)c2nc3cc(C)cc(C)c3s2)cc1`, the EC50 is 11.4 µM.

Turning to `COc1ccc(Cc2nnc(N/N=C/c3ccc(N(C)C)cc3)[nH]c2=O)cc1OC`, the EC50 is > 80 µM (inactive).

For the compound `N=c1n(CC(=O)c2ccc([N+](=O)[O-])cc2)c2ccccc2n1Cc1ccc(Cl)cc1`, the EC50 is 7.87 µM.

On to `COc1ccc2cc1Oc1ccc(cc1)C[C@H]1c3c(cc(OC)c4c3Oc3c(ccc5c3[C@H](C2)N(C)CC5)O4)CCN1C`, for which the EC50 was 7.91 µM.

Consider `O=Cc1cc2ccccc2nc1SCc1ccc(Cl)c(Cl)c1`, for which the EC50 entry was “inactive”.

Regarding `O=C(/C=C\c1cn(-c2ccccc2)nc1-c1ccccc1)Nc1nccs1`, the EC50 was > 80 µM (inactive).

In the case of `CCN(CC)c1ccc(-c2nn3c(-c4ccccc4OC)nnc3s2)cc1`, the EC50 entry is “inactive”.

As for `CN(C)c1ccc(/C=C/[N+](=O)[O-])cc1`, the EC50 is 12.6 µM.

For `COC(=O)c1ccc(COc2ccccc2/C=C(\C#N)C(=O)Nc2c(C)cccc2C)cc1`, the EC50 is 17.4 µM.

On to `CC1(C)C=Cc2c(c3c(c4c(=O)c(-c5ccc(O)cc5)coc24)OC(C)(C)CC3)O1`, for which the EC50 was 13.1 µM.

In the case of `COc1ccc2nc(C)cc(SCC(=O)N/N=C/c3cccc4ccccc34)c2c1`, the EC50 result is “inactive”.

Turning to `O=C(Nc1ccc(Cl)cc1)Nc1ccccc1Sc1ncc([N+](=O)[O-])s1`, the EC50 result is “inactive”.

In the case of `O=c1cc2oc3cc(O)c(O)cc3c(-c3ccccc3[N+](=O)[O-])c-2cc1O`, the EC50 was > 80 µM (inactive).

Take `Cn1c(-c2ccccc2)c(/C=N/NC(=O)c2ccc(O)cc2)c2ccccc21`: the EC50 was > 80 µM (inactive).

With `COc1ccc(NC(=O)c2sc3nc(N4CCOCC4)c4c(c3c2N)CC(C)(C)OC4)c(OC)c1`, the EC50 was 19.3 µM.

On to `Oc1ccc(Br)cc1/C=N/Nc1ccccn1`, for which the EC50 is > 80 µM (inactive).

Consider `C/C(CCC12CC3CC(CC(C3)C1)C2)=N\NC(N)=S`, for which the EC50 entry is “inactive”.

On to `FC(F)(F)c1nnc2c(Sc3ccc(Cl)cc3)nc3ccccc3n12`, for which the EC50 was 4.67 µM.

With `N#Cc1c(-c2ccc3c(c2)OCO3)ccn2nc(-c3cccc(C(F)(F)F)c3)nc12`, the EC50 result is “inactive”.

As for `CC(C)Cn1c2c(c(=O)[nH]c1=O)C(C(F)(F)F)(C(F)(F)F)N=C(CCC1CCCCC1)N2`, the EC50 entry is “inactive”.

Regarding `CCCCCCCC(=O)Nc1ccc(C(=O)N/N=C/c2cccc([N+](=O)[O-])c2)cc1`, the EC50 is 2.33 µM.

With `Cc1ccc2nc(Nc3nc(C)cc(-c4ccccc4)n3)[nH]c(=O)c2c1`, the EC50 was > 80 µM (inactive).

`COc1cc(/C=C2/C(=N)N3C=CSC3=NC2=O)ccc1OCCCOc1cc(C)ccc1C`: the EC50 was > 80 µM (inactive).

As to `Cc1c(O)cc2c(c1O)C(=O)CC(c1ccccc1)O2` (stereo not given), the EC50 is 10.9 µM.

For `Nc1nc(SCc2ccc(Cl)cc2Cl)nc2nc3c(cc12)CCCC3`, the EC50 was > 80 µM (inactive).

Consider `CC1CCc2c(sc(NC(=O)CCc3nc4ccccc4c(=O)[nH]3)c2C#N)C1` (stereo not given), for which the EC50 result is “inactive”.

Take `CCc1ccc(-n2c(SCC(=O)c3ccc4c(c3)NC(=O)CO4)nc3ccccc3c2=O)cc1`: the EC50 is 9.34 µM.

For the compound `O=c1[nH]c(O)c(/C=C2/C=CC(c3cc(Cl)ccc3Cl)=N2)c(=O)[nH]1`, the EC50 was 6.12 µM.

Turning to `COc1ccc(C(CCNCc2ccccc2)c2ccc(F)cc2)cc1` (stereo not given), the EC50 is 10.4 µM.

Turning to `CCCCCCCCCCOC(=O)Cn1c(COc2ccccc2C)[n+](C)c2ccccc21`, the EC50 is > 80 µM (inactive).

`O=C(Nc1nc(-c2ccc(F)c(F)c2)cs1)Nc1ccc(F)cc1F`: the EC50 is 13.4 µM.

As to `CCCCN1C(=O)/C(=C2/Sc3ccc(OC)cc3N2CC)SC1=S`, the EC50 entry is “inactive”.

In the case of `CCOc1cc(/C=N/NC(N)=S)cc(Br)c1OCc1ccccc1C`, the EC50 was 12.5 µM.

`CCc1ccc(-c2cc(C(F)(F)F)n3nc(C(=O)Nc4cnn(Cc5ccc(C)cc5)c4)cc3n2)s1`: the EC50 was 3.35 µM.

As for `O=C(COc1ccc(/C=N/NC(=O)c2cc3ccccc3o2)cc1Br)Nc1ccccc1`, the EC50 was 3.69 µM.

On to `Oc1ccc(/C=N/Nc2ncnc3c2ncn3Cc2ccccc2)cc1O`, for which the EC50 was 7.62 µM.

`O=C1NC(=O)N(Cc2ccc(F)cc2)C(=O)/C1=C/c1cccs1`: the EC50 is 13.8 µM.

Take `CCOC(=O)c1nnc(-c2ccccc2)nc1Sc1c(Cl)cccc1Cl`: the EC50 is 12.9 µM.

On to `N#C/C(=C/c1ccc(N2CCCC2)c([N+](=O)[O-])c1)c1nc2ccccc2[nH]1`, for which the EC50 is > 80 µM (inactive).

Regarding `CCCCCCCCCCOC(=O)Cn1c(COc2ccc(C)cc2)[n+](C)c2ccccc21`, the EC50 was > 80 µM (inactive).

In the case of `COc1cc([C@H]2c3[nH]c4ccccc4c3C[C@H]3C(=O)N4[C@@H](c5cc(OC)c(OC)c(OC)c5)c5[nH]c6ccccc6c5C[C@H]4C(=O)N23)cc(OC)c1OC`, the EC50 was 7.28 µM.

For `COc1cc2c(cc1NC(=S)NC(=O)/C=C/c1ccco1)oc1ccccc12`, the EC50 entry is “inactive”.

With `COc1cc(/C=N/Nc2nc(Nc3ccc(C)cc3)nc(-n3nc(C)cc3C)n2)cc(OC)c1OC`, the EC50 is > 80 µM (inactive).

For `CC(C)CC(NC(=O)c1ccc(Cl)cc1)C(=O)OCC(=O)c1ccc2c(c1)NC(=O)CO2` (stereo not given), the EC50 is > 80 µM (inactive).

For `OC(CNCC1CCCO1)Cn1c2ccc(Cl)cc2c2cc(Cl)ccc21` (stereo not given), the EC50 was > 80 µM (inactive).

Take `Cc1ccc(-c2nc(N/N=C/c3cccc([N+](=O)[O-])c3)c3ccccc3n2)cc1`: the EC50 is > 80 µM (inactive).

Take `Cc1ccc(Cn2c(C(C)Nc3nc(-c4ccc(F)cc4)cs3)nc3cc(Cl)c(Cl)cc32)cc1` (stereo not given): the EC50 result is “inactive”.

Take `COc1ccc(N=Cc2c(O)c3ccccc3oc2=O)cc1`: the EC50 was 10.3 µM.

Turning to `COc1ccc(/C=c2\s/c(=C(/C#N)C(=O)NCc3ccco3)n(-c3ccccc3)c2=O)cc1`, the EC50 entry is “inactive”.

For the compound `CCOc1ccc(S(=O)(=O)Nc2cccc(C(=O)NCC3(N4CCCCC4)CCCCC3)c2)cc1`, the EC50 result is “inactive”.

As to `Cc1ccc(NC(=O)Cn2c(/C=C/c3ccccc3)nc3ccccc32)cc1C`, the EC50 is > 80 µM (inactive).

For `OCCNc1nc(Nc2ccc(Br)cc2)nc2ccccc12`, the EC50 was 5.82 µM.

As to `CCOC(=O)c1c(NC(=O)c2cc(-c3ccc(O)cc3)on2)sc(C(C)=O)c1C`, the EC50 is > 80 µM (inactive).

As to `Nc1cccc(-c2nc3cc(S(=O)(=O)c4ccc5oc(-c6cccc(N)c6)nc5c4)ccc3o2)c1`, the EC50 is > 80 µM (inactive).

`CC(C)=CCCC1(C)C=Cc2c(c(C)cc3c2[nH]c2cc(O)ccc23)O1` (stereo not given): the EC50 entry was “inactive”.

In the case of `O=C(/C=C/c1ccccc1)c1ccccc1O`, the EC50 is 13.2 µM.

In the case of `CCOc1cc(/C=N/N=C(/N)c2nonc2N)cc(Br)c1OCc1ccc(Cl)cc1`, the EC50 is > 80 µM (inactive).

As to `CC1CCN(Cc2c(C(=O)N/N=C/c3ccc(C(F)(F)F)cc3)nnn2-c2nonc2N)CC1`, the EC50 is > 80 µM (inactive).

As for `COc1c(Cl)cc(Cl)cc1/C=N/NC(=O)c1nnn(-c2nonc2N)c1CN1CCC(C)CC1`, the EC50 entry was “inactive”.

As for `Cc1ccc(Cc2cnc(NC(=O)/C(C#N)=C/c3ccc(-c4cccc([N+](=O)[O-])c4)o3)s2)cc1`, the EC50 was 12 µM.

As to `COc1cc(C(=O)Nc2cc(-c3nc4cc(C)ccc4o3)ccc2C)cc(OC)c1OC`, the EC50 result was “inactive”.

Turning to `COc1cccc(-n2c(SCC(=O)N3CCc4ccccc43)nnc2-c2c[nH]c3ccccc23)c1`, the EC50 is > 80 µM (inactive).

Take `Cc1ccc(C(=O)N2N=C(c3ccc(Br)cc3)CC2c2ccccc2O)cc1` (stereo not given): the EC50 was 14.3 µM.

As for `O=C(NCCCn1ccnc1)c1nn2c(C(F)(F)F)cc(-c3ccc(Br)cc3)nc2c1Cl`, the EC50 was > 80 µM (inactive).

`O=C(Nc1cccc(-c2nc3cccnc3s2)c1)C1c2ccccc2Oc2ccccc21`: the EC50 is 4.35 µM.

On to `COc1cc([N+](=O)[O-])cc(/C=N/NC(=O)c2ccc(NC(=O)c3ccc(C)cc3)cc2)c1O`, for which the EC50 entry is “inactive”.

`COc1ccc(-c2nc3scc(-c4ccc(OC)c(OC)c4)c3c(=O)o2)cc1`: the EC50 is > 80 µM (inactive).

Take `COC(=O)C1C(O)=C(C=Nc2cccc3ccccc23)C(=O)CC1(C)C` (stereo not given): the EC50 was 1.41 µM.

Consider `COc1ccc(N2CCN(Cc3cc(=O)oc4cc(-c5ccccc5)c(O)cc34)CC2)cc1`, for which the EC50 was > 80 µM (inactive).

As for `COc1ccc(/C=N/Nc2cc(C)nc3ccc(Br)cc23)cc1`, the EC50 is 9.88 µM.

As to `COc1ccc(-c2ccc(C#N)c(SCC(=O)Nc3sc4c(c3C#N)CCC4)n2)cc1OC`, the EC50 was > 80 µM (inactive).

Turning to `CC(C)(C)c1csc(NC(=O)c2ccc(Cl)s2)n1`, the EC50 was > 80 µM (inactive).

As to `Cc1cc(NC(=O)c2cc(-c3ccncc3)nc3ccccc23)ccc1Br`, the EC50 was > 80 µM (inactive).

In the case of `O=C(/C=C1\NC2(CCCC2)Cc2ccccc21)C(=O)N/N=C/c1ccc(O)c(O)c1`, the EC50 is 10.4 µM.

Regarding `Cc1cccc(N2CCN(C(=S)Nc3ccc4nc(N5CCN(C)CC5)cc(C)c4c3)CC2C)c1` (stereo not given), the EC50 was > 80 µM (inactive).

For the compound `CCOc1ccc(C(=O)Nc2cc(-c3nc4ccccc4[nH]3)ccc2Cl)cc1[N+](=O)[O-]`, the EC50 is 17.7 µM.

As to `Fc1ccc(Nc2nc(NCc3ccco3)c3ccccc3n2)cc1`, the EC50 is > 80 µM (inactive).

For the compound `CCCCCc1nc2c(c(=O)c3ccccc3n2C)c(=O)n1C1CCCCCC1`, the EC50 was 15.3 µM.

Take `Cc1ccc(N=Cc2c(O)n(-c3ccc4c(c3)OCO4)c(=O)c3ccccc23)cc1`: the EC50 is > 80 µM (inactive).

On to `COc1cc(N(C(=O)Cc2cccs2)C(C(=O)NC2CCCCC2)c2ccc(C)cc2)ccc1-n1cnnn1` (stereo not given), for which the EC50 was > 80 µM (inactive).

Take `O=C(N/N=C/c1ccc(O)c(O)c1)c1ccc(CSc2cccc3cccnc23)cc1`: the EC50 was 15.2 µM.

Consider `O=C(Nc1ccc(NC(=O)c2sc3ccccc3c2Cl)cc1Cl)c1ccco1`, for which the EC50 entry is “inactive”.

Take `O=C(Nc1ccc([N+](=O)[O-])cc1)c1nc[nH]c1C(=O)NC1CCCCC1`: the EC50 was > 80 µM (inactive).

`CCOc1cc(/C=N/NC(=O)Cn2nc([N+](=O)[O-])cc2C)cc(Br)c1OCc1ccccc1C`: the EC50 was > 80 µM (inactive).
